How the values were obtained:
Assay in all cases: relative viability (nuclei count vs DMSO), 5 days (fraction); higher = more cells survive
BAY61-3606 + Pictilisib = compound: COC1=C(C=C(C=C1)C2=CC3=NC=CN3C(=N2)NC4=C(C=CC=N4)C(=O)N)OC [BAY61-3606] + CS(=O)(=O)N1CCN(Cc2cc3nc(-c4cccc5[nH]ncc45)nc(N4CCOCC4)c3s2)CC1 [Pictilisib] (partner 1 µM)
Summary of the method: (§1)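 Each reported value is a median over duplicate plates. It expresses relative viability: treated-well nuclei count divided by vehicle-well nuclei count. Lung cancer cell lines in 1536-well plates were dosed by pin tool a day after seeding, alone with one drug or with a fixed anchor-drug dose plus five library-drug doses (not always all listed) in √10 steps, and nuclei were counted after 5 days.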

BAY61-3606 + AZD7762 = compound: COC1=C(C=C(C=C1)C2=CC3=NC=CN3C(=N2)NC4=C(C=CC=N4)C(=O)N)OC [BAY61-3606] + NC(=O)Nc1cc(-c2cccc(F)c2)sc1C(=O)N[C@H]1CCCNC1 [AZD7762] (partner 0.2 µM)
Summary of the method: as §1

BAY61-3606 + Trametinib = compound: COC1=C(C=C(C=C1)C2=CC3=NC=CN3C(=N2)NC4=C(C=CC=N4)C(=O)N)OC [BAY61-3606] + CC(=O)Nc1cccc(-n2c(=O)n(C3CC3)c(=O)c3c(Nc4ccc(I)cc4F)n(C)c(=O)c(C)c32)c1 [Trametinib] (partner 0.02 µM)
Summary of the method: as §1

Doxorubicin + Phenformin = compound: COc1cccc2c1C(=O)c1c(O)c3c(c(O)c1C2=O)C[C@@](O)(C(=O)CO)C[C@@H]3O[C@H]1C[C@H](N)[C@H](O)[C@H](C)O1 [Doxorubicin] + N=C(N)NC(=N)NCCc1ccccc1 [Phenformin] (partner 250 µM)
Summary of the method: as §1

Row | Cell Line | relative viability (BAY61-3606 + Pictilisib; first compound 0.02 µM) | relative viability (BAY61-3606 + Pictilisib; first compound 0.06325 µM) | relative viability (BAY61-3606 + Pictilisib; first compound 0.2 µM) | relative viability (BAY61-3606 + Pictilisib; first compound 0.6325 µM) | relative viability (BAY61-3606 + Pictilisib; first compound 2 µM) | relative viability (BAY61-3606 + AZD7762; first compound 0.02 µM) | relative viability (BAY61-3606 + AZD7762; first compound 0.06325 µM) | relative viability (BAY61-3606 + AZD7762; first compound 0.2 µM) | relative viability (BAY61-3606 + AZD7762; first compound 0.6325 µM) | relative viability (BAY61-3606 + AZD7762; first compound 2 µM) | relative viability (BAY61-3606 + Trametinib; first compound 0.02 µM) | relative viability (BAY61-3606 + Trametinib; first compound 0.06325 µM) | relative viability (BAY61-3606 + Trametinib; first compound 0.2 µM) | relative viability (BAY61-3606 + Trametinib; first compound 0.6325 µM) | relative viability (BAY61-3606 + Trametinib; first compound 2 µM) | relative viability (Doxorubicin + Phenformin; first compound 0.001 µM) | relative viability (Doxorubicin + Phenformin; first compound 0.003162 µM) | relative viability (Doxorubicin + Phenformin; first compound 0.01 µM) | relative viability (Doxorubicin + Phenformin; first compound 0.03162 µM) | relative viability (Doxorubicin + Phenformin; first compound 0.1 µM)
1 | NCI-H1355 | 0.508 | 0.378 | 0.389 | 0.374 | 0.302 | 0.833 | 0.531 | 0.679 | 0.749 | 0.529 | 0.424 | 0.447 | 0.409 | 0.46 | 0.345 | 0.423 | 0.488 | 0.465 | 0.449 | 0.416
2 | NCI-H1651 | 0.628 | 0.689 | 0.623 | 0.531 | 0.401 | 0.517 | 0.454 | 0.463 | 0.52 | 0.498 | 0.929 | 0.809 | 0.833 | 0.844 | 0.762 | 0.319 | 0.336 | 0.259 | 0.154 | 0.153
3 | LU99A | 0.343 | 0.352 | 0.34 | 0.329 | 0.278 | 0.41 | 0.306 | 0.358 | 0.399 | 0.334 | 0.485 | 0.57 | 0.534 | 0.503 | 0.47 | 0.698 | 1.06 | 0.767 | 0.721 | 0.669
4 | NCI-H322M | 0.506 | 0.529 | 0.516 | 0.523 | 0.482 | 0.528 | 0.525 | 0.579 | 0.522 | 0.571 | 0.533 | 0.522 | 0.542 | 0.499 | 0.486 | 0.815 | 0.731 | 0.755 | 0.429 | 0.385
5 | LOU-NH91 | 0.566 | 0.544 | 0.568 | 0.505 | 0.472 | 0.792 | 0.686 | 0.748 | 0.784 | 0.656 | 0.842 | 0.766 | 0.826 | 0.794 | 0.706 | 0.505 | 0.695 | 0.783 | 0.698 | 0.591
6 | NCI-H727 | 0.443 | 0.4 | 0.392 | 0.386 | 0.267 | 0.747 | 0.509 | 0.577 | 0.75 | 0.734 | 0.392 | 0.382 | 0.423 | 0.42 | 0.387 | 0.499 | 0.472 | 0.696 | 0.539 | 0.404
7 | RERF-LC-KJ | 0.532 | 0.411 | 0.59 | 0.577 | 0.441 | 1.07 | 0.846 | 1.03 | 0.872 | 0.869 | 0.868 | 0.846 | 0.901 | 0.866 | 0.676 | 0.397 | 0.443 | 0.372 | 0.325 | 0.271
8 | H3255 | 0.516 | 0.432 | 0.463 | 0.467 | 0.447 | 0.941 | 0.775 | 1.03 | 0.942 | 0.902 | 0.688 | 0.538 | 0.598 | 0.715 | 0.587 | 0.371 | 0.363 | 0.333 | 0.374 | 0.311
9 | NCI-H1793 | 0.434 | 0.381 | 0.303 | 0.352 | 0.434 | 0.483 | 0.277 | 0.448 | 0.636 | 0.504 | 0.445 | 0.414 | 0.449 | 0.437 | 0.478 | – | 0.291 | 0.355 | 0.334 | 0.429
10 | LXF-289 | 0.846 | 0.83 | 0.782 | 0.805 | 0.84 | 1.13 | 1.1 | 1.04 | 1.24 | 1.24 | 0.694 | 0.673 | 0.722 | 0.752 | 0.766 | 0.432 | 0.545 | 0.498 | 0.504 | 0.495
11 | HOP-62 | 0.68 | – | 0.582 | 0.783 | 0.53 | – | 0.643 | 0.517 | 0.748 | 0.531 | – | 0.416 | 0.414 | 0.456 | 0.336 | 0.654 | 0.625 | 0.631 | 0.542 | 0.484
12 | LK-2 | 0.594 | 0.423 | 0.614 | 0.758 | 0.532 | 0.369 | 0.309 | 0.472 | 0.534 | 0.361 | 0.727 | 0.806 | 0.897 | 0.915 | 0.683 | 0.31 | 0.328 | 0.388 | 0.33 | 0.351
13 | HCC-44 | 0.581 | 0.651 | 0.634 | 0.684 | 0.561 | 1.01 | 1.1 | 0.962 | 1.01 | 1.1 | 1.04 | 1.09 | 1 | 1.07 | 1.2 | 0.207 | 0.244 | 0.341 | 0.151 | 0.162
14 | BEN | 0.71 | 0.476 | 0.6 | 0.655 | 0.599 | 0.78 | 0.637 | 0.672 | 0.694 | 0.808 | 1.21 | 1.01 | 1.11 | 1.21 | 1.2 | 0.251 | 0.231 | 0.278 | 0.256 | 0.283
15 | NCI-H2405 | 0.623 | 0.308 | 0.379 | 0.371 | 0.43 | 0.832 | 0.658 | 0.748 | 0.658 | 0.496 | 0.637 | 0.559 | 0.711 | 0.728 | 0.518 | 0.346 | 0.373 | 0.436 | 0.419 | 0.355
16 | NCI-H1395 | 0.777 | 0.524 | 0.584 | 0.641 | 0.559 | 0.393 | 0.411 | 0.424 | 0.42 | 0.393 | 1.06 | 1.07 | 0.964 | 1.02 | 0.95 | 0.43 | 0.44 | 0.447 | 0.414 | 0.449
17 | 201T | 0.716 | 0.677 | 0.761 | 0.703 | 0.744 | 0.592 | 0.759 | 0.752 | 0.661 | 0.688 | 0.728 | 0.712 | 0.771 | 0.753 | 0.735 | 0.442 | 0.476 | 0.468 | 0.416 | 0.432
18 | NCI-H358 | 0.385 | 0.327 | 0.333 | 0.321 | 0.167 | 0.489 | 0.502 | 0.469 | 0.468 | 0.261 | 0.137 | 0.158 | 0.143 | 0.146 | 0.0995 | 0.299 | 0.307 | 0.176 | 0.0992 | 0.0721
19 | NCI-H650 | 0.984 | 0.722 | 0.798 | 1.01 | 0.596 | 1.18 | 0.887 | 0.889 | 0.998 | 0.999 | 1.09 | 1.05 | 0.922 | 0.93 | 0.838 | 0.543 | 0.419 | 0.509 | 0.424 | 0.373
20 | PC-3 [JPC-3] | 0.784 | 0.695 | 0.695 | 0.678 | 0.561 | 0.675 | 0.794 | 0.809 | 0.801 | 0.752 | 0.772 | 0.668 | 0.741 | 0.726 | 0.654 | 0.448 | 0.478 | 0.515 | 0.468 | 0.471
21 | HCC-15 | 0.848 | 0.65 | 0.697 | 0.769 | 0.665 | 1.31 | 0.919 | 1.29 | 1.25 | 1.16 | 0.425 | 0.375 | 0.385 | 0.382 | 0.423 | – | 0.518 | 0.355 | 0.148 | 0.135
22 | LCLC-97TM1 | 0.272 | – | 0.28 | 0.178 | 0.179 | 0.204 | 0.326 | 0.228 | 0.393 | 0.345 | 0.207 | 0.195 | 0.203 | 0.187 | 0.205 | 0.449 | 0.481 | 0.402 | 0.467 | 0.392
23 | NCI-H647 | 0.622 | 0.297 | 0.435 | 0.404 | 0.365 | 0.433 | 0.393 | 0.383 | 0.444 | 0.324 | 0.479 | 0.496 | 0.413 | 0.551 | 0.319 | 0.539 | 0.494 | 0.432 | 0.231 | 0.103
24 | EPLC-272H | 0.442 | 0.373 | 0.264 | 0.25 | 0.248 | 0.223 | 0.193 | 0.313 | 0.186 | 0.173 | 0.309 | 0.275 | 0.281 | 0.294 | 0.263 | 0.325 | 0.32 | 0.395 | 0.256 | 0.299

Reference: the supplement of paper PMC10307832
